Where two headings read alike, the source gives them in different places.

Data set [1] has as its target T1, MOR (Homo sapiens, UniProt P35372). The data set is described as follows: cell-based. The conditions noted are these: for Emax: read-out: Emax for G-protein activation. The method, then: The G-protein pathway activation was performed as previously described.[40] Briefly, the G-protein pathway activation was measured using HitHunter cAMP assays, which quantify cAMP, a secondary messenger involved in G-protein-coupled receptor (GPCR) signaling. This assay employed Enzyme Fragment Complementation (EFC) technology with β-galactosidase (β-Gal) as the reporter enzyme. Upon activation, β-Gal produces a chemiluminescent signal that is detected using a microplate reader, providing a quantitative measure of G-protein pathway activity.

The target of data set [2] is T1, MOR. The data set is described as follows: cell-based. The following applies: for Emax: read-out: Emax for β-arrestin recruitment. The procedure:
The β-Arrestin recruitment assay was performed as previously described.[41] Briefly, the PathHunter β-Arrestin assay was used to monitor GPCR activation through β-arrestin recruitment. This assay also utilized EFC technology, with β-Gal as the reporter enzyme. In this system, the Enzyme Acceptor (EA) fragment was fused to β-arrestin, and the ProLink (PK) fragment was fused to the GPCR of interest. Upon GPCR activation, EA and PK complementation restored β-Gal activity, generating a chemiluminescent signal that was measured using PathHunter Detection Reagents.
(Activated receptors often draw arrestin, which recruitment assays turn into a signal.)

On the set-up of data set [3]: method as in doi:10.3390/scipharm88020025, PMID 17435173, PMID 24712707. The conditions noted are these: water or methanol, cited from earlier work.
In another data set the test system is nonactivated THP-1 cells. Nature of the data set: Inflammatory cytokine assay, nonactivated THP-1 cells (ELISA). The conditions noted are these: 24 h. (An ELISA detects its analyte on a solid surface through an enzyme-linked reagent.)
Data set [4] relates to LPS-activated THP-1 cells. The data set is described as follows: Inflammatory cytokine assay, LPS-activated THP-1 cells (ELISA). The conditions noted are these: LPS 0.1 μg/mL, 24 h, three concentrations.
Method: This assay evaluated the impact of various compounds on cytokine production in THP1 cells stimulated with LPS, as previously described with some modifications.[35] Following treatment, key cytokines were measured to enhance our understanding of the modulatory effects of these compounds on inflammation.
The cells were cultured for 24 h at 37 °C and 5% CO2. After the culture period, the cell free supernatants were harvested and stored at −80 °C until cytokine measurement.
The cytokines IL-1beta, IL-6 and TNF were measured using an ELISA Development Kit (R&D, biotechne, Wiesbaden, Germany) according to the recommendations of the manufacturer.
Data set [5] has as its target T2, MOR expressed in human embryonic kidney 293 (HEK-293) cells (Homo sapiens, UniProt P35372).
T2 construct: host or cells: HEK-293
Nature of the data set: In vitro radioligand competition binding assay against [3H]DAMGO (Eurofins). The method, then:
The Ki values were determined from the measured IC50 values using the Cheng-Prusoff equation,[39] Ki = IC50/[1 + ([L]/Kd)], where [L] and Kd are the concentration and binding affinity of the radiolabeled ligand in the assay, respectively.
(In general: Loss of bound radioactivity is the signal in a displacement assay; it reports binding, not function.)

Setting [6] is: compared with the reported EC50 of morphine.

T2 sequence (P35372 whole entry): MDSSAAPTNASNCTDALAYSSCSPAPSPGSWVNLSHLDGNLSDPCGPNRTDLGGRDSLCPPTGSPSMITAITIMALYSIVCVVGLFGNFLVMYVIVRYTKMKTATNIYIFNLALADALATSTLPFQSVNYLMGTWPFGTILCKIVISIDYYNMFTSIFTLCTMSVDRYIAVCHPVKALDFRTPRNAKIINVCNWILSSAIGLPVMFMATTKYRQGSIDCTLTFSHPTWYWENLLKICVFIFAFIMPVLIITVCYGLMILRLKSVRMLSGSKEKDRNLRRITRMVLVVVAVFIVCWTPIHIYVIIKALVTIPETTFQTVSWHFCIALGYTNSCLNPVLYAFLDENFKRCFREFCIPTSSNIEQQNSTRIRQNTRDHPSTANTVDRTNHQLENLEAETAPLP
T1 sequence (P35372 whole entry, the tested form may be a part): as the sequence (P35372 whole entry) above

Consider `COc1ccsc1CNCC[C@@]1(c2ccccn2)CCOC2(CCCC2)C1` [TRV-130, oliceridine, reference compound], for which the figures for the Emax at MOR [1] and on MOR [2] were 100% and 7.9%, respectively.

Turning to `Cc1c(N(C)CS(=O)(=O)O)c(=O)n(-c2ccccc2)n1C` [metamizole, metamizole sodium], the figures for the “hydrolysis to 4-methylaminoantipyrine (4-MAA)” value in data set [3] (acidic conditions) and in data set [3] (neutral pH) were “more rapidly” and “slowly”, respectively. For the same compound, in the data set on nonactivated THP-1 cells, the “induction of pro-inflammatory cytokines (TNF, IL-1beta, IL-6)” value (“induction of pro-inflammatory cytokines” for short) was “did not see any induction”. In addition, the “effect on LPS-induced TNF release” value in data set [4] is “dose-dependent and significant upregulation”.

As to `Cc1c(N(C)Cc2cc3c4c(c2O)O[C@H]2[C@@H](O)C=C[C@H]5[C@@H](C3)N(C)CC[C@@]452)c(=O)n(-c2ccccc2)n1C` [metamorphine], the “fold less potent against MOR than morphine (Ki)” value in data set [5] (compared with the reported Ki of morphine) is “about 8 fold”. Moreover, the IC50 in data set [5] (read-out: half-maximal inhibitory concentration (IC50), MOR binding) was determined as 7.3 nM. For the same compound, the inhibition constant (Ki) (commonly a measure of affinity in units of concentration, obtained from inhibition or displacement) in data set [5] (read-out: inhibitory constant (Ki), MOR binding) was determined as 3 nM. Further, the “fold difference to morphine, G-protein activation” value on MOR [1] (setting [6]) is reported as 22 fold. Also, the Emax (commonly the greatest response seen or fitted, relative to the assay's reference) on MOR [1] came to 97%; at MOR [2], 70%. Moreover, the “fold difference to morphine, β-arrestin recruitment” value on MOR [2] (setting [6]) was 8 fold. Moreover, the “induction of pro-inflammatory cytokines” value in the data set with nonactivated THP-1 cells was “did not see any induction”. The “effect on LPS-induced TNF release” value in data set [4] was “no significant effect”.

Consider `CN1CC[C@]23c4c5ccc(O)c4O[C@H]2[C@@H](O)C=C[C@H]3[C@H]1C5` [morphine], for which the “induction of pro-inflammatory cytokines” value in the data set on nonactivated THP-1 cells is given as “did not see any induction”. In data set [4], the “effect on LPS-induced TNF release” value is “no significant effect”.

Values taken from paper PMC11915030 (ACS Pharmacology & Translational Science, 2025).
